Measured values: ChEMBL document CHEMBL1127005, “Design of novel agents for the therapy of non-insulin dependent diabetes mellitus (NIDDM)” (Bioorg Med Chem Lett, 1993)

organism: Rattus norvegicus; test: Inhibition against gluconeogenesis was expressed as effect of compound on rat hepatocyte glucose production from 10 mM lactate/1 mM pyruvate/0.5 mM oleate; type: functional; details: Rattus norvegicus, Hepatocyte

| Compound | IC50 |
| --- | --- |
| C=C1[C@@H](CC(N)=O)[C@H]1CCCC | 4 µM |
| C=C1[C@@H](CCCCCCCCCCCC)[C@@H]1CC(=O)O | 160 µM |
| C=C1[C@@H](CC(=O)O)[C@H]1CCCC | 15 µM |
| C=C1C[C@@H]1CC(N)=O | 30 µM |
| C=C1[C@@H](CC(N)=O)[C@H]1CCCCCCCCCCCC | 32 µM |
| C=C1[C@H](CCCC)[C@H]1CC(N)=O | 60 µM |
| C=C1[C@H](CCCC)[C@H]1CC(=O)O | 30 µM |
| C=C1[C@@H](CC(N)=O)[C@H]1CCCCCCCC | 8 µM |
| C=C1C[C@@H]1CC(=O)O | 60 µM |
| C=C1[C@@H](CC(=O)O)[C@H]1CCCCCCCCCCCC | 25 µM |
| C=C1[C@@H](CC(=O)O)[C@H]1CCCCCCCC | 5 µM |

same assay, conditions: hepatocyte

| Compound | IC50 |
| --- | --- |
| C=C1[C@H](CCCCCCCCCCCC)[C@H]1CC(=O)O (stereo in doubt) | 13 µM |
| C=C1[C@H](CCCCCCCCCCCC)[C@H]1CC(=O)O (stereo in doubt; 4d) | 200 µM |
